Values quoted from earlier work, collected in patent US5866539A, “Method for the control of antibiotic-resistant gram positive bacteria and treatment of infection” (AMBI Inc., priority 1996, dated 1999).
Where no end group is shown, it is not given here.

Tested on: staphylococci and enterococci
Details: compared to currently used therapeutic agents

Substance | activity towards staphylococci and enterococci
mersacidin (CTFTLPGGGGVCTLTSECIC; also: lantibiotic thioether rings, places not given here; UniProt P43683 49-68, looked up) [more recent lanthionine-containing antimicrobial peptide evaluated in the literature] | only moderate activity
Actagardine | only moderate activity
